Measured values as given in ChEMBL document CHEMBL1201862, “PubChem BioAssay data set” (2004).
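Tested at 5 concentrations; 48 h exposure; 96-well plates; endpoints linearly interpolated, else capped at highest concentration. Abbreviation: GI50, concentration required for 50% inhibition of growth.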 Activity calls are given as the source filed them. Rule as the data show it: active = GI50 up to about 1.1 µM and inactive = higher.

Columns and labels:
Test in all cases: growth of human tumour cells (NCI), 48 h
786-0 = test system: 786-0
A498 = test system: A498
A549 = test system: A549
ACHN = test system: ACHN
CAKI-1 = test system: CAKI-1
COLO 205 = test system: COLO 205
DU-145 = test system: DU-145
EKVX = test system: EKVX
HCC 2998 = test system: HCC 2998
HCT-116 = test system: HCT-116
HCT-15 = test system: HCT-15
HL-60 = test system: HL-60
HOP-62 = test system: HOP-62
HOP-92 = test system: HOP-92
HT-29 = test system: HT-29
Hs-578T = test system: Hs-578T
IGROV-1 = test system: IGROV-1
K562 = test system: K562
LOX IMVI = test system: LOX IMVI
M14 = test system: M14
MCF7 = test system: MCF7
MDA-MB-231 = test system: MDA-MB-231
MDA-MB-435 = test system: MDA-MB-435
MDA-N = test system: MDA-N
MOLT-4 = test system: MOLT-4
Malme-3M = test system: Malme-3M
NCI-H226 = test system: NCI-H226
NCI-H23 = test system: NCI-H23
NCI-H460 = test system: NCI-H460
NCI-H522 = test system: NCI-H522
NCI/ADR-RES = test system: NCI/ADR-RES
OVCAR-3 = test system: OVCAR-3
OVCAR-4 = test system: OVCAR-4
OVCAR-5 = test system: OVCAR-5
PC-3 = test system: PC-3
RPMI-8226 = test system: RPMI-8226
RXF 393 = test system: RXF 393
SF-268 = test system: SF-268
SF-295 = test system: SF-295
SF-539 = test system: SF-539
SK-MEL-28 = test system: SK-MEL-28
SK-MEL-2 = test system: SK-MEL-2
SK-MEL-5 = test system: SK-MEL-5
SK-OV-3 = test system: SK-OV-3
SN12C = test system: SN12C
SNB-19 = test system: SNB-19
SR = test system: SR
SW-620 = test system: SW-620
T47D = test system: T47D
U-251 = test system: U-251
UACC-257 = test system: UACC-257
UACC-62 = test system: UACC-62
UO-31 = test system: UO-31
CCRF-CEM = test system: CCRF-CEM
KM12 = test system: KM12
OVCAR-8 = test system: OVCAR-8
SNB-75 = test system: SNB-75
TK-10 = test system: TK-10

SMILES: O=C(/C=C/c1ccc(O)c(O)c1)OCCCc1ccccc1
- GI50 (786-0): 4390 nM (inactive)
- GI50 (A498): 16400 nM (inactive)
- GI50 (A549): 14300 nM (inactive)
- GI50 (ACHN): 5320 nM (inactive)
- GI50 (CAKI-1): 20600 nM (inactive)
- GI50 (COLO 205): 12400 nM (inactive)
- GI50 (DU-145): 14100 nM (inactive)
- GI50 (EKVX): 25800 nM (inactive)
- GI50 (HCC 2998): 20400 nM (inactive)
- GI50 (HCT-116): 10600 nM (inactive)
- GI50 (HCT-15): 3900 nM
- GI50 (HL-60): 1070 nM (active)
- GI50 (HOP-62): 13700 nM (inactive)
- GI50 (HOP-92): 12900 nM (inactive)
- GI50 (HT-29): 21900 nM (inactive)
- GI50 (Hs-578T): 28400 nM (inactive)
- GI50 (IGROV-1): 3340 nM (inactive)
- GI50 (K562): 21300 nM (inactive)
- GI50 (LOX IMVI): 12300 nM (inactive)
- GI50 (M14): 7780 nM (inactive)
- GI50 (MCF7): 12000 nM (inactive)
- GI50 (MDA-MB-231): 11800 nM (inactive)
- GI50 (MDA-MB-435): 9440 nM (inactive)
- GI50 (MDA-N): 11800 nM (inactive)
- GI50 (MOLT-4): 946 nM (active)
- GI50 (Malme-3M): 12100 nM (inactive)
- GI50 (NCI-H226): 16000 nM (inactive)
- GI50 (NCI-H23): 13200 nM (inactive)
- GI50 (NCI-H460): 20200 nM (inactive)
- GI50 (NCI-H522): 851 nM (active)
- GI50 (NCI/ADR-RES): 8390 nM (inactive)
- GI50 (OVCAR-3): 1710 nM (inactive)
- GI50 (OVCAR-4): 6670 nM (inactive)
- GI50 (OVCAR-5): 18400 nM (inactive)
- GI50 (PC-3): 8850 nM (inactive)
- GI50 (RPMI-8226): 13100 nM (inactive)
- GI50 (RXF 393): 11200 nM (inactive)
- GI50 (SF-268): 10200 nM (inactive)
- GI50 (SF-295): 16000 nM (inactive)
- GI50 (SF-539): 2450 nM (inactive)
- GI50 (SK-MEL-28): 15300 nM (inactive)
- GI50 (SK-MEL-2): 17500 nM (inactive)
- GI50 (SK-MEL-5): 13200 nM (inactive)
- GI50 (SK-OV-3): 23600 nM (inactive)
- GI50 (SN12C): 11900 nM (inactive)
- GI50 (SNB-19): 15000 nM (inactive)
- GI50 (SR): 5690 nM (inactive)
- GI50 (SW-620): 12600 nM (inactive)
- GI50 (T47D): 16400 nM (inactive)
- GI50 (U-251): 11000 nM (inactive)
- GI50 (UACC-257): 34100 nM (inactive)
- GI50 (UACC-62): 9840 nM (inactive)
- GI50 (UO-31): 4950 nM (inactive)

SMILES: CCN1CCN=c2c3cc(OC)ccc3n3cnc4ccc1c2c43
- GI50 (786-0): 75.9 nM (active)
- GI50 (A498): 225 nM (active)
- GI50 (A549): 192 nM (active)
- GI50 (ACHN): 131 nM (active)
- GI50 (CAKI-1): 340 nM (active)
- GI50 (CCRF-CEM): 102 nM (active)
- GI50 (COLO 205): 150 nM (active)
- GI50 (DU-145): 483 nM (active)
- GI50 (EKVX): 231 nM (active)
- GI50 (HCC 2998): 244 nM (active)
- GI50 (HCT-116): 56.5 nM (active)
- GI50 (HCT-15): 177 nM
- GI50 (HL-60): 206 nM (active)
- GI50 (HOP-62): 193 nM (active)
- GI50 (HOP-92): 776 nM (active)
- GI50 (HT-29): 173 nM (active)
- GI50 (Hs-578T): 313 nM (active)
- GI50 (IGROV-1): 2020 nM (inactive)
- GI50 (K562): 55.5 nM (active)
- GI50 (KM12): 395 nM (active)
- GI50 (LOX IMVI): 154 nM (active)
- GI50 (M14): 245 nM (active)
- GI50 (MCF7): 219 nM (active)
- GI50 (MDA-MB-231): 275 nM (active)
- GI50 (MDA-MB-435): 197 nM (active)
- GI50 (MDA-N): 256 nM (active)
- GI50 (MOLT-4): 87.9 nM (active)
- GI50 (Malme-3M): 267 nM (active)
- GI50 (NCI-H226): 323 nM (active)
- GI50 (NCI-H23): 328 nM (active)
- GI50 (NCI-H460): 94.8 nM (active)
- GI50 (NCI-H522): 8.65 nM (active)
- GI50 (NCI/ADR-RES): 145 nM (active)
- GI50 (OVCAR-3): 226 nM (active)
- GI50 (OVCAR-4): 371 nM (active)
- GI50 (OVCAR-5): 316 nM (active)
- GI50 (OVCAR-8): 86.3 nM (active)
- GI50 (PC-3): 207 nM (active)
- GI50 (RPMI-8226): 171 nM (active)
- GI50 (RXF 393): 330 nM (active)
- GI50 (SF-268): 427 nM (active)
- GI50 (SF-295): 260 nM (active)
- GI50 (SF-539): 123 nM (active)
- GI50 (SK-MEL-28): 506 nM (active)
- GI50 (SK-MEL-2): 238 nM (active)
- GI50 (SK-MEL-5): 270 nM (active)
- GI50 (SK-OV-3): 348 nM (active)
- GI50 (SN12C): 142 nM (active)
- GI50 (SNB-19): 301 nM (active)
- GI50 (SNB-75): 456 nM (active)
- GI50 (SR): 28.3 nM (active)
- GI50 (SW-620): 824 nM (active)
- GI50 (T47D): 390 nM (active)
- GI50 (TK-10): 411 nM (active)
- GI50 (U-251): 192 nM (active)
- GI50 (UACC-257): 553 nM (active)
- GI50 (UACC-62): 246 nM (active)
- GI50 (UO-31): 147 nM (active)
